Consider one compound from patent publication US4918079A, “Imidazole derivatives as 5-HT3 receptor antagonists” (Beecham Group p.l.c., priority 1987, dated 1990).

Counter-ions that a name gives are not always drawn.

For the assay, the system named is von Bezold-Jarisch reflex evoked by 5-HT. The experiment in a line: Antagonism of the von Bezold-Jarisch reflex evoked by 5-HT in the anaesthetised rat. The format is in vivo. The note with it: iv, male rats, urethane anaesthesia, 5-HT usually 6 μg/kg i.v., heart rate, read-out: ED50 (concentration required to reduce the 5-HT-evoked response to 50% of the control response). On the procedure:
Antagonism of the von Bezold-Jarisch reflex
The compounds were evaluated for antagonism of the von Bezold-Jarisch reflex evoked by 5-HT in the anaesthetised rat according to the following method:
Male rats 250≥350 g, were anaesthetised with urethane (1.25 g/kg intraperitoneally) and blood pressure and heart rate recorded as described by Fozard J. R. et al., J. Cardiovasc. Pharmacol. 2, 229-245 (1980). A submaximal dose of 5-HT (usually 6 μg/kg) was given repeatedly by the intravenous route and changes in heart rate quantified. Compounds were given intravenously and the concentration required to reduce the 5-HT-evoked response to 50% of the control response (ED50) was then determined.

`CC1(C)CN(C(=O)CCc2c[nH]cn2)c2ccccc21` [Example E1, monohydrochloride]: the ED50 was 4.2 µg/kg.
